From article PMC6445171 (Journal of Enzyme Inhibition and Medicinal Chemistry, 2017)
Converted amounts (≈) assume the structure as drawn. Where two headings read alike, the source gives them in different places. Values belong to the compound of their own block, whether it stands above or below them.

What was measured:
physchem = settings: pH 7.4, aqueous buffer
[1] = cited from earlier work

- Solubility (physchem): 28 µM (≈ 5.61 µg/mL)
Structure (SMILES): Nc1ccc2oc(-c3ccco3)nc2c1 [Compound D1, 2-(Furan-2-yl)-1,3-benzoxazol-5-amine]

Structure (SMILES): COCCOc1ccc(N2CCN(CCn3ncc4c3nc(N)n3nc(-c5ccco5)nc43)CC2)cc1 [Preladenant]
- Solubility ([1]; reference antagonist): 0.02 µM (≈ 0.0101 µg/mL)

Structure (SMILES): CCn1c(=O)c2c(nc(/C=C/c3ccc(OC)c(OC)c3)n2C)n(CC)c1=O [Istradefylline]
- Solubility ([1]; reference antagonists): 1.5 µM (≈ 0.577 µg/mL)
